Reference: ChEMBL document CHEMBL1134826, “Pyrrolidine inhibitors of human cytosolic phospholipase A2. Part 2: synthesis of potent and crystallized 4-triphenylmethylthio derivative 'pyrrophenone'” (Bioorg Med Chem Lett, 2001)

What was measured:
THP-1 [1] = assay: Concentration required to inhibit production of LTC4 from THP-1 cells stimulated with A-23187; assay type: functional, cell-based; conditions: Homo sapiens
THP-1 [2] = assay: Concentration required to inhibit production of PGE-2 from THP-1 cells stimulated with A-23187; assay type: functional, cell-based; conditions: Homo sapiens
THP-1 [3] = assay: Concentration required to inhibit production of arachidonic acid from THP-1 cells stimulated with A-23187; assay type: functional, cell-based; conditions: Homo sapiens
Homo sapiens [4] = organism: Homo sapiens; assay: Concentration required to inhibit production of PGE-2 from whole blood stimulated with A-23187; assay type: functional, organism-based
Homo sapiens [5] = organism: Homo sapiens; assay: Concentration required to inhibit production of LTB4 from whole blood stimulated with A-23187; assay type: functional, organism-based
Homo sapiens [6] = organism: Homo sapiens; assay: Concentration required to inhibit production of arachidonic acid from whole blood stimulated with A-23187; assay type: functional, organism-based
Homo sapiens [7] = organism: Homo sapiens; assay: Concentration required to inhibit production of TXB2 from whole blood stimulated with A-23187; assay type: functional, organism-based
Homo sapiens [8] = organism: Homo sapiens; assay: Concentration required to inhibit production of LDH from whole blood stimulated with A-23187; assay type: functional, organism-based

IC50 (THP-1 [1]) [µM]	IC50 (THP-1 [3]) [µM]	IC50 (Homo sapiens [4]) [µM]	IC50 (Homo sapiens [5]) [µM]	IC50 (Homo sapiens [6]) [µM]	IC50 (Homo sapiens [7]) [µM]	IC50 (Homo sapiens [8]) [µM]	SMILES	IC50 (THP-1 [2]) [µM]
41	86	> 10	> 10	> 10	> 10	> 10	CCCCC/C=C\C/C=C\C/C=C\C/C=C\CCCC(=O)C(F)(F)F [ARACHIDONYL TRIFLUOROMETHYLKETONE]	–
> 10	> 10	0.26	> 10	> 10	0.36	> 10	COc1ccc2c(c1)c(CC(=O)O)c(C)n2C(=O)c1ccc(Cl)cc1 [INDOMETHACIN]	–

SMILES	IC50 (THP-1 [1]) [µM]	IC50 (THP-1 [3]) [µM]	IC50 (Homo sapiens [4]) [µM]	IC50 (Homo sapiens [5]) [µM]	IC50 (Homo sapiens [6]) [µM]	IC50 (Homo sapiens [7]) [µM]	IC50 (Homo sapiens [8]) [µM]	IC50 (THP-1 [2]) [µM]
CCCCC/C=C\C/C=C\C/C=C\C/C=C\CCCC(=O)O [ARACHIDONIC ACID]	0.0047	40	> 10	0.94	> 10	> 10	> 10	0.18
